This is an account of results in patent US10501445B2, “Quinoxalinones and dihydroquinoxalinones as respiratory syncytial virus antiviral agents” (JANSSEN SCIENCES IRELAND UC, priority 2013, dated 2019).

For series [1], the system named is rgRSV224 virus. The experiment in a line: Antiviral activity: rgRSV224 (GFP-expressing RSV) replication in HeLa cells, GFP expression readout. Type of series: cell-based. The settings on record: human respiratory syncytial virus, 72 h, read-out: WT activity EC50. As to the method:
(§1) Black 96-well clear-bottom microtiter plates (Corning, Amsterdam, The Netherlands) were filled in duplicate using a customized robot system with serial 4-fold dilutions of compound in a final volume of 50 μl culture medium [RPMI medium without phenol red, 10% FBS, 0.04% gentamycin (50 mg/ml) and 0.5% DMSO]. Then, 100 μl of a HeLa cell suspension (5×10^4 cells/ml) in culture medium was added to each well followed by the addition of 50 μl rgRSV224 (MOI=0.02) virus in culture medium using a multidrop dispenser (Thermo Scientific, Erembodegem, Belgium). rgRSV224 virus is an engineered virus that includes an additional GFP gene (Hallak et al, 2000) and was in-licensed from the NIH (Bethesda, Md., USA). Medium, virus- and mock-infected controls were included in each test. Cells were incubated at 37° C. in a 5% CO2 atmosphere. Three days post-virus exposure, viral replication was quantified by measuring GFP expression in the cells by a MSM laser microscope (Tibotec, Beerse, Belgium). The EC50 was defined as the 50% inhibitory concentration for GFP expression. In parallel, compounds were incubated for three days in a set of white 96-well microtitier plates (Corning) and the cytotoxicity of compounds in HeLa cells was determined by measuring the ATP content of the cells using the ATPlite kit (PerkinElmer, Zaventem, Belgium) according to the manufacturer's instructions. The CC50 was defined as the 50% concentration for cytotoxicity.

A short description of series [2]: in vitro. In kind it is cell-based. The settings on record: human. How it is done:
as §1

Molecules are shown by their SMILES. pEC50: −log10 of the molar value.

By pEC50 is commonly meant the negative decadic logarithm of the EC50, by convention in mol/L. As usually defined, the CC50 is the concentration that lowers cell viability or growth by half. High values mean lower toxicity to the cells, low ones greater toxicity to the cells. In the case of `CC(C)CCn1c(CN2C(=O)CN(C3CC3)c3ccncc32)nc2nc(Cl)ccc21` [Compound P22, 4-((5-chloro-1-isopentyl-1H-imidazo[4,5-b]pyridin-2-yl)methyl)-1-cyclopropyl-1,2-dihydropyrido[3,4-b]pyrazin-3(4H)-one], the pEC50 in series [1] is 6.92. For the same compound, the midpoint of cytotoxicity in series [2], the CC50 at 3 days, lay at 60.7 µM. Regarding `CS(=O)(=O)CCCn1c(Cn2c(=O)cnc3ccc(F)cc32)cc2cc(Br)ccc21` [Compound P28, 1-((5-bromo-1-(3-(methylsulfonyl)propyl)-1H-indol-2-yl)methyl)-7-fluoroquinoxalin-2(1H)-one], the pEC50 in series [1] was 7.74.

Turning to `O=c1cnc2ccc(-c3ccccc3)cc2n1Cc1nc2cc(F)ccc2n1CCCCF` [Compound P6, 1-((5-fluoro-1-(4-fluorobutyl)-1H-benzo[d]imidazol-2-yl)methyl)-7-phenylquinoxalin-2(1H)-one], the pEC50 in series [1] was 5.40. Besides, half-maximal cytotoxicity in series [2] (CC50 at 3 days) was put at 42.8 µM.

On to `CC(C)CCn1c(Cn2c(=O)cnc3ccc(Br)cc32)nc2nc(Cl)ccc21` [Compound P13, 7-bromo-1-((5-chloro-1-isopentyl-1H-imidazo[4,5-b]pyridin-2-yl)methyl) quinoxalin-2(1H)-one], for which the pEC50 in series [1] is 8.40. In series [2], this compound displayed a CC50 at 3 days of 46.5 µM. With `CS(=O)(=O)CCCn1c(CN2C(=O)CN(C3CC3)c3ccncc32)nc2cc(Cl)ccc21` [Compound P26, 4-((5-chloro-1-(3-(methylsulfonyl)propyl)-1H-benzo[d]imidazol-2-yl)-methyl)-1-cyclopropyl-1,2-dihydropyrido[3,4-b]pyrazin-3(4H)-one], in series [1], the negative-log EC50 (pEC50) is 7.82. In series [2], the CC50 at 3 days is more than 100 µM.

Turning to `O=C1CN(C2CC2)c2ccncc2N1Cc1nc2cc(Cl)ccc2n1CCCC(F)(F)F` [Compound P27, 4-((5-chloro-1-(4,4,4-trifluorobutyl)-1H-benzo[d]imidazol-2-yl)methyl)-1-cyclopropyl-1,2-dihydropyrido[3,4-b]pyrazin-3(4H)-one], the pEC50 in series [1] is 7.54. Further, the CC50 at 3 days in series [2] was more than 100 µM.

Turning to `O=c1cnc2ccc(Br)cc2n1Cc1nc2cc(F)ccc2n1CCCCF` [Compound P1, 7-bromo-1-{[5-fluoro-1-(4-fluorobutyl)-1H-benzimidazol-2-yl]methyl}quinoxalin-2(1H)-one], in series [1], the pEC50 was 7.15. In series [2], this compound gave a CC50 at 3 days of 87 µM.

For `O=c1cnc2ccc(-c3ccc(C(F)(F)F)cc3)cc2n1Cc1nc2cc(F)ccc2n1CCCCF` [Compound P3, 1-((5-fluoro-1-(4-fluorobutyl)-1H-benzo[d]imidazol-2-yl)methyl)-7-(4-(trifluoromethyl)phenyl)quinoxalin-2(1H)-one], in series [1], the pEC50 is less than 5.00. This compound also came in with a CC50 at 3 days in series [2] of 42.4 µM. The like results for `CC(C)CCn1c(Cn2c(=O)cnc3ccc(-c4ccsc4)cc32)nc2nc(Cl)ccc21` [Compound P15, 1-((5-chloro-1-isopentyl-1H-imidazo[4,5-b]pyridin-2-yl)methyl)-7-(thiophen-3-yl)-quinoxalin-2(1H)-one] were, in that order, 6.47 and 27.6 µM. For `O=C1CN(C2CC2)c2ccncc2N1Cc1nc2cc(F)ccc2n1CCCCF` [Compound P12, 1-cyclopropyl-4-((5-fluoro-1-(4-fluorobutyl)-1H-benzo[d]imidazol-2-yl)methyl)-1,2-dihydropyrido[3,4-b]pyrazin-3(4H)-one], in that order: 7.96 and 50.1 µM.

Turning to `CS(=O)(=O)CCCn1c(CN2C(=O)CN(C3CC3)c3ccncc32)nc2cc(Br)ccc21` [Compound P23, 4-((5-bromo-1-(3-(methylsulfonyl)propyl)-1H-benzo[d]imidazol-2-yl)methyl)-1-cyclopropyl-1,2-dihydropyrido[3,4-b]pyrazin-3(4H)-one], the pEC50 in series [1] is 8.82. In series [2], this compound came in with a CC50 at 3 days of 71.3 µM. For `CC(C)CCn1c(Cn2c(=O)cnc3ccc(F)cc32)nc2nc(Cl)ccc21` [Compound P19, 1-((5-chloro-1-isopentyl-1H-imidazo[4,5-b]pyridin-2-yl)methyl)-7-fluoroquinoxalin-2(1H)-one], in series [1], the pEC50 is 7.38. Besides, the 50% cytotoxic concentration (CC50) at 3 days in series [2] is more than 100 µM. For `Cc1nc(C)c(-c2ccc3ncc(=O)n(Cc4nc5cc(F)ccc5n4CCCCF)c3c2)s1` [Compound P4, 7-(2,4-dimethylthiazol-5-yl)-1-((5-fluoro-1-(4-fluorobutyl)-1H-benzo[d]imidazol-2-yl)methyl)quinoxalin-2(1H)-one], in that order: 5.32 and 31.1 µM. Regarding `O=c1cnc2ccc(-c3ccncc3)cc2n1Cc1nc2cc(F)ccc2n1CCCCF` [Compound P8, 1-((5-fluoro-1-(4-fluorobutyl)-1H-benzo[d]imidazol-2-yl)methyl)-7-(pyridin-4-yl)quinoxalin-2(1H)-one], the pEC50 in series [1] is 5.57. The compound further returned a cytotoxic concentration (CC50) at 3 days in series [2] of 86.8 µM.

Regarding `O=c1cnc2cnccc2n1Cc1nc2cc(F)ccc2n1CCCCF` [Compound P11, 1-((5-fluoro-1-(4-fluorobutyl)-1H-benzo[d]imidazol-2-yl)methyl)pyrido[3,4-b]pyrazin-2(1H)-one], the pEC50 in series [1] was 5.14. For the same compound, the CC50 at 3 days in series [2] is more than 100 µM.

As to `CC(C)CCn1c(Cn2c(=O)cnc3ccc(-c4ccncc4)cc32)nc2nc(Cl)ccc21` [Compound P14, 1-((5-chloro-1-isopentyl-1H-imidazo[4,5-b]pyridin-2-yl)methyl)-7-(pyridin-4-yl)quinoxalin-2(1H)-one], the pEC50 in series [1] is 7.21. The same compound gave a CC50 at 3 days in series [2] of 14.7 µM. In the case of `CC(C)CCn1c(Cn2c(=O)cnc3cnccc32)nc2nc(Cl)ccc21` [Compound P21, 1-((5-chloro-1-isopentyl-1H-imidazo[4,5-b]pyridin-2-yl)methyl)pyrido[4,3-b]pyrazin-2(1H)-one], the pEC50 in series [1] is less than 5.00. The compound further registered a CC50 at 3 days in series [2] of more than 100 µM. For `Cn1nc(C(F)(F)F)cc1-c1ccc2ncc(=O)n(Cc3nc4cc(F)ccc4n3CCCCF)c2c1` [Compound P5, 1-((5-fluoro-1-(4-fluorobutyl)-1H-benzo[d]imidazol-2-yl)methyl)-7-(1-methyl-3-(trifluoromethyl)-1H-pyrazol-5-yl)quinoxalin-2(1H)-one], in that order: 5.31 and 53.3 µM. Consider `CC(C)CCn1c(Cn2c(=O)cnc3ccc(-c4cncnc4)cc32)nc2nc(Cl)ccc21` [Compound P17, 1-((5-chloro-1-isopentyl-1H-imidazo[4,5-b]pyridin-2-yl)methyl)-7-(pyrimidin-5-yl)quinoxalin-2(1H)-one], for which, in series [1], the negative-log EC50 (pEC50) is 6.32. Moreover, the CC50 at 3 days in series [2] is more than 100 µM. The like results for `CS(=O)(=O)CCCn1c(Cn2c(=O)cnc3cc(F)ccc32)nc2cc(Br)ccc21` [Compound P25, 1-((5-bromo-1-(3-(methylsulfonyl)propyl)-1H-benzo[d]imidazol-2-yl)methyl)-6-fluoroquinoxalin-2(1H)-one] were, in that order, 8.19 and 64 µM. The like results for `CS(=O)(=O)CCCn1c(Cn2c(=O)cnc3ccc(F)cc32)nc2cc(Br)ccc21` [Compound P24, 1-((5-bromo-1-(3-(methylsulfonyl)propyl)-1H-benzo[d]imidazol-2-yl)methyl)-7-fluoroquinoxalin-2(1H)-one] were, in that order, 8.40 and 78.5 µM. On to `CN(C)Cc1cccc(-c2ccc3ncc(=O)n(Cc4nc5cc(F)ccc5n4CCCCF)c3c2)c1` [Compound P7, 7-(3-((dimethylamino)methyl)phenyl)-1-((5-fluoro-1-(4-fluorobutyl)-1H-benzo[d]imidazol-2-yl)methyl)quinoxalin-2(1H)-one], for which the negative logarithm of the EC50 (pEC50) in series [1] is 7.00. Further, the midpoint of cytotoxicity in series [2], the CC50 at 3 days, lay at 17.6 µM. For `CC(C)CCn1c(Cn2c(=O)cnc3ccc(-c4cccn4C(=O)OC(C)(C)C)cc32)nc2nc(Cl)ccc21` [Compound P16, tert-butyl 2-(4-((5-chloro-1-isopentyl-1H-imidazo[4,5-b]pyridin-2-yl)methyl)-3-oxo-3,4-dihydroquinoxalin-6-yl)-1H-pyrrole-1-carboxylate], in that order: 6.29 and 42.5 µM. For `CC(C)CCn1c(Cn2c(=O)cnc3ccc(-c4ccc(F)cc4)cc32)nc2nc(Cl)ccc21` [Compound P18, 1-((5-chloro-1-isopentyl-1H-imidazo[4,5-b]pyridin-2-yl)methyl)-7-(4-fluorophenyl)quinoxalin-2(1H)-one], in that order: 5.48 and 51.5 µM. For `O=c1cnc2cc(F)ccc2n1Cc1nc2cc(F)ccc2n1CCCCF` [Compound P10, 6-fluoro-1-((5-fluoro-1-(4-fluorobutyl)-1H-benzo[d]imidazol-2-yl)methyl)quinoxalin-2(1H)-one], in that order: 5.98 and more than 100 µM. With `O=c1cnc2ccc(-c3ccc(CCN4CCOCC4)cc3)cc2n1Cc1nc2cc(F)ccc2n1CCCCF` [Compound P2, 1-((5-fluoro-1-(4-fluorobutyl)-1H-benzo[d]imidazol-2-yl)methyl)-7-(4-(2-morpholinoethyl)phenyl)quinoxalin-2(1H)-one], the negative-log EC50 (pEC50) in series [1] was less than 5.00. Besides, in series [2], the CC50 at 3 days came to 94 µM. For `CC(C)CCn1c(Cn2c(=O)cnc3cc(F)ccc32)nc2nc(Cl)ccc21` [Compound P20, 1-((5-chloro-1-isopentyl-1H-imidazo[4,5-b]pyridin-2-yl)methyl)-6-fluoroquinoxalin-2(1H)-one], in that order: 7.49 and more than 100 µM.
